Reference: patent US4455315A, “N-(Difluoromethoxy substituted phenyl)-dichloromaleimides used in agricultural and horticultural fungicidal methods” (Showa Denko Kabushiki Kaisha, priority 1980, dated 1984)

Key:
[1] = tested on: Alternaria kikuchiana; assay: Spore-germination Inhibiting Test; format: cell-based; details: 10 ppm, 27° C., 20 hours
Protocol: Spore-germination Inhibiting Test for Alternaria kukuchiana An apricot medium is inoculated with Alternaria kikuchiana and incubated at a temperature of 27° C. for 7-10 days to form conidia on the medium. […] 0.02 Ml of the prepared spore suspension containing the compound according to the present invention is dropped on a slide glass and incubated at a temperature of 27° C. under moist conditions for 20 hours. Thereafter, whether or not the spores germinate is examined under a microscope and the spore-germination rate is then calculated.

[2] = tested on: Diaporthe citri; assay: Citrus Melanose-controlling Test; format: in vivo; details: 500 ppm; for Infested Leaves (%): 24 days after inoculation; for Infestation Rate / Number of Leaves Showing Infestation Index 0 / Number of Leaves Showing Infestation Index 1 / Number of Leaves Showing Infestation Index 2 / Number of Leaves Showing Infestation Index 3 / Number of Leaves Showing Infestation Index 4: 24 days; for Infestation Rate: (Σnf/4N)×100; for Number of Leaves Showing Infestation Index 0: index 0 = 0-25% infested area; for Number of Leaves Showing Infestation Index 1: index 1 = 26-50% infested area; for Number of Leaves Showing Infestation Index 2: index 2 = 51-75% infested area; for Number of Leaves Showing Infestation Index 3: index 3 = 76-90% infested area; for Number of Leaves Showing Infestation Index 4: index 4 = 91-100% infested area
[3] = tested on: Diaporthe citri; assay: Test of Residual Activity against Citrus Melanose; format: in vivo; details: 1000 ppm, 23 mm/hr of rain; for Infested Leaves (%): 24 days after inoculation; for Infestation Rate: 24 days, (Σnf/4N)×100; for Number of Leaves Showing Each Infestation Index: 0: index 0 = 0-25% infested area; for Number of Leaves Showing Each Infestation Index: 1: index 1 = 26-50% infested area; for Number of Leaves Showing Each Infestation Index: 2: index 2 = 51-75% infested area; for Number of Leaves Showing Each Infestation Index: 3: index 3 = 76-90% infested area; for Number of Leaves Showing Each Infestation Index: 4: index 4 = 91-100% infested area
[4] = tested on: Alternaria kikuchiana; assay: Pear Black Spot-controlling Test; details: 500 ppm, six days after inoculation
Protocol: Pear Black Spot (Alternaria kikuchiana)-controlling Test
(§1) The resulting solution is sprayed on unfolded leaves of potted young pears (variety: Niju-seiki) in an amount corresponding to 600 l/10a per pot. After air-drying, the unfolded leaves are inoculated with Alternaria kikuchiana, by spraying a suspension of conidia thereof containing 30 conidia per microscopic field (magnification: X200).
(§2) After inoculation, the potted young pears are allowed to stand at a temperature of 27° C. in a moist room for one day and then transferred to a greenhouse. Six days after inoculation, the leaf area infested by pear black spot, i.e., the area of pathologic spots on a leaf is examined on 5 unfolded leaves per pot and an average infestation rate is then calculated.

[5] = tested on: potted young pears (variety: Niju-seiki); assay: Phytotoxicity of treating compound, Pear Black Spot test; details: 500 ppm, damaged area on leaves
Protocol: as §1, §2
*The phytotoxicity of the treating compound is evaluated according to the

[6] = tested on: potted young oranges (variety: Unshu); assay: Phytotoxicity of treating compound, Citrus Melanose test; details: 500 ppm
[7] = tested on: potted young oranges (variety: Unshu); assay: Phytotoxicity of treating compound, residual activity test; details: 1000 ppm, 23 mm/hr of rain

Structure (SMILES) | Spore-germination Rate (%) [1] | Infested Leaves (%) [2] | Infestation Rate [2] | Number of Leaves Showing Infestation Index 0 [2] | Number of Leaves Showing Infestation Index 1 [2] | Number of Leaves Showing Infestation Index 2 [2] | Number of Leaves Showing Infestation Index 3 [2] | Number of Leaves Showing Infestation Index 4 [2] | Infested Leaves (%) [3] | Infestation Rate [3] | Number of Leaves Showing Each Infestation Index: 0 [3] | Number of Leaves Showing Each Infestation Index: 1 [3] | Number of Leaves Showing Each Infestation Index: 2 [3] | Number of Leaves Showing Each Infestation Index: 3 [3] | Number of Leaves Showing Each Infestation Index: 4 [3] | Average Infestation Rate (%) (Based on infested area) [4] | Phytotoxicity of Treating Compound [5] | Phytotoxicity of Treating Compound [6] | Phytotoxicity of Treating Compound [7]
COc1ccc(N2C(=O)C(Cl)=C(Cl)C2=O)cc1 [compound 9] | 9% | 98% | 43 | 5 leaves | 86 leaves | 115 leaves | 30 leaves | 0 leaves | 36% | 12 | 113 leaves | 45 leaves | 18 leaves | 1 leaves | 0 leaves | 28% | ± (1-5%) | - (0%) | - (0%)
O=C1C=CC(=O)N1c1ccccc1OC(F)F [compound 4] | 7% | 1.0% | 0.2 | 218 leaves | 2 leaves | 0 leaves | 0 leaves | 0 leaves | 82% | 30 | 30 leaves | 82 leaves | 43 leaves | 10 leaves | 0 leaves | 15% | ± (1-5%) | - (0%) | + (6-25%)
O=C1C(Cl)=C(Cl)C(=O)N1c1cccc(OC(F)F)c1 [compound 2, 2,3-dichloro-N-(m-difluoromethoxyphenyl)maleimide] | 0% | 0.5% | 0.1 | 210 leaves | 1 leaves | 0 leaves | 0 leaves | 0 leaves | 2% | 0.5 | 181 leaves | 4 leaves | 0 leaves | 0 leaves | 0 leaves | 9% | ± (1-5%) | - (0%) | ± (1-5%)
O=C1C=CC(=O)N1c1ccc(OC(F)F)cc1 [compound 6] | 4% | 98% | 43 | 257 leaves | 110 leaves | 103 leaves | 44 leaves | 0 leaves | 91% | 34 | 15 leaves | 86 leaves | 45 leaves | 13 leaves | 0 leaves | 36% | ++ (26-50%) | + (6-25%) | + (6-25%)
O=C1C=CC(=O)N1c1cccc(OC(F)F)c1 [compound 5] | 5% | 85% | 43 | 33 leaves | 63 leaves | 71 leaves | 30 leaves | 18 leaves | 87% | 43 | 22 leaves | 43 leaves | 72 leaves | 28 leaves | 7 leaves | 55% | +++ (≥51%) | ++ (26-50%) | ++ (26-50%)
CC(C)NC(=O)N1CC(=O)N(c2cc(Cl)cc(Cl)c2)C1=O [iprodione, 1-Isopropylcarbamoyl-3-(3',5'-dichlorophenyl)-hydantoin] | – | – | – | – | – | – | – | – | – | – | – | – | – | – | – | 11% | - (0%) | – | –
COc1cccc(N2C(=O)C(Cl)=C(Cl)C2=O)c1 [compound 8] | 25% | 10% | 3.3 | 109 leaves | 14 leaves | 7 leaves | 1 leaves | 0 leaves | 78% | 31 | 35 leaves | 58 leaves | 61 leaves | 7 leaves | 0 leaves | 20% | ± (1-5%) | - (0%) | - (0%)
COc1ccccc1N1C(=O)C(Cl)=C(Cl)C1=O [compound 7] | 75% | 98% | 43 | 5 leaves | 85 leaves | 111 leaves | 32 leaves | 0 leaves | 29% | 9 | 115 leaves | 36 leaves | 11 leaves | 1 leaves | 0 leaves | 32% | ++ (26-50%) | + (6-25%) | + (6-25%)
O=C1C(Cl)=C(Cl)C(=O)N1c1ccccc1OC(F)F [compound 1, 2,3-dichloro-N-(o-difluoromethoxyphenyl)maleimide] | 7% | 0.5% | 0.1 | 221 leaves | 1 leaves | 0 leaves | 0 leaves | 0 leaves | 22% | 7 | 122 leaves | 27 leaves | 6 leaves | 1 leaves | 0 leaves | 9% | ± (1-5%) | - (0%) | ± (1-5%)
[Cu+2].[O-]c1cccc2cccnc12.[O-]c1cccc2cccnc12 [oxinecopper, 8-Hydroxyquinoline-Cu] | – | – | – | – | – | – | – | – | 81% | 26 | 35 leaves | 113 leaves | 37 leaves | 2 leaves | 0 leaves | – | – | – | ± (1-5%)
